According to article PMC9848270, “Synthesis and biological assessment of indole derivatives containing penta-heterocycles scaffold as novel anticancer agents towards A549 and K562 cells” (Journal of Enzyme Inhibition and Medicinal Chemistry, 2023):

Tests used:
A549 cells [1] = assay: Cell cycle analysis (PI staining, flow cytometry), A549; format: cell-based, human; conditions: 4 µM, 48 h
Experimental: (§1) A549 or K562 cells were separately seeded at 4.0 × 10^5cells/well in six-well plates and incubated for 24 h until adherent. […] After treatment, the cells were collected, and washed twice with pre-cooled PBS and then fixed with ice-cold ethanol (70%), subsequently kept 4 °C for overnight. After washing twice with PBS, cells were incubated at 37 °C with 100 µ L RNase A for 30 min. After this, cells were incubated with 400 µL PI for 30 min at 4 °C. Finally, the cell cycle distribution of compound 10 b was analysed via the BD FACSCalibur flow cytometry (American BD Corporation Shanghai Co. Ltd.)

[2] = tested on: human liver cancer cells (HepG2); assay: MTT antiproliferative assay, HepG2; format: cell-based; conditions: for inhibition at 10 µM: read-out: Inhibition rate, HepG2; for IC50: MTT assay, 48 h, read-out: In vitro cytotoxicity IC50, HepG2
Experimental: (§2) A549, PC-3, HepG2 and K562 cells were purchased from the Kunming cell bank of the Chinese academy of sciences. All cell lines were cultured in DMEM or RPMI 1640 complete medium. Logarithmic growth cells were cultured in 96-well plates at a concentration of 10^4 cells per well and pre-cultured for 24 h before adding test compounds. The MTT test with 5-Fluorouracil and Gefitinib as reference compounds were used to evaluate antiproliferative activity of target compounds in four human cancer line cells. For the estimation of the inhibition concentration (IC50), the Graph Pad Prism (GraphPad Software, San Diego, CA) was used.

[3] = tested on: normal cell line (HEK293); assay: MTT cytotoxicity, normal cell line HEK293; format: cell-based, human; conditions: Homo sapiens, HEK293; 10 μM; read-out: Inhibition rate, HEK293
[4] = MTT cytotoxicity, normal cell line HEK293; format: cell-based, human; conditions: human, HEK293 cells (normal cell line); MTT assay, 48 h; normal cell line; CC50; read-out: In vitro cytotoxicity IC50, HEK293
K562 cells [5] = assay: Annexin V-FITC/PI apoptosis flow cytometry, K562; format: cell-based, human; parameters: total numbers of apoptotic cells, K562: dose or concentration left out as unconfirmed; conditions: 48 h
Experimental: (§3) Annexin-V/FITC assay, after the adherent cells grew stably in the 6-well plate, each group was reacted with different concentrations of compound solutions for 48 h. Then, cells were collected by trypsinization without EDTA, rinsed twice with PBS, followed by the Annexin V-FITC/PI apoptosis detection kit (Solarbio, Bei Jing, China) according to the kit instructions, flow cytometry by BD FACSCalibur instrument (American BD Company Shanghai Co., Ltd.).

K562 cells [6] = assay: Cell cycle analysis (PI staining, flow cytometry), K562; format: cell-based, human; conditions: 4 µM, 48 h
Experimental: as §1

A549 cells [7] = assay: Annexin V-FITC/PI apoptosis flow cytometry, A549; format: cell-based, human; conditions: 4 µM, 48 h
Experimental: as §3

[8] = tested on: human prostate cancer cells (PC-3); assay: MTT antiproliferative assay, PC-3; format: cell-based; conditions: Homo sapiens; for IC50: 48 h, MTT assay, read-out: In vitro cytotoxicity IC50, PC-3; for inhibition at 10 µM: read-out: Inhibition rate, PC-3
Experimental: as §2

[9] = tested on: human chronic myeloid leukaemia cells (K562); assay: MTT antiproliferative assay, K562; format: cell-based; conditions: for inhibition at 10 µM: K562, 10 μM, read-out: Inhibition rate, K562; for IC50: K562, 48 h, MTT assay, 48 h, read-out: In vitro cytotoxicity IC50, K562
Experimental: as §2

[10] = tested on: human non-small cell lung cancer cells (A549); assay: MTT antiproliferative assay, A549; format: cell-based; conditions: for inhibition at 10 µM: A549, 10 μM, read-out: Inhibition rate, A549; for IC50: A549, 48 h, MTT assay, 48 h, read-out: In vitro cytotoxicity IC50, A549
Experimental: as §2

[11] = tested on: A549, PC-3, HepG2 and K562 cells; assay: MTT antiproliferative assay, four cancer cell lines taken together; format: cell-based, human
Experimental: as §2

Compound	DNA contents of the live population, G0/G1 phase, A549 (A549 cells [1]) [%]	DNA contents of the live population, G2/M phase, A549 (A549 cells [1]) [%]	DNA contents of the live population, S phase, A549 (A549 cells [1]) [%]	inhibition at 10 µM [2] [%]	IC50 [2] [µM]	inhibition at 10 µM [3] [%]	IC50 at 48 h [4] [µM]	total numbers of apoptotic cells, K562 (K562 cells [5]) [%]	DNA contents of the live population, G0/G1 phase, K562 (K562 cells [6]) [%]	DNA contents of the live population, G2/M phase, K562 (K562 cells [6]) [%]	DNA contents of the live population, S phase, K562 (K562 cells [6]) [%]	total numbers of apoptotic cells, A549 (A549 cells [7]) [%]	IC50 [8] [µM]	inhibition at 10 µM [8] [%]	inhibition at 10 µM [9] [%]	IC50 [9] [µM]	inhibition at 10 µM [10] [%]	IC50 [10] [µM]	antiproliferative activity in words [11]	melting point [°C]
O=c1[nH]cc(F)c(=O)[nH]1 [5-Fluorouracil, reference compound]	46.87	13.13	34.63	26.4 ± 0.513	15 ± 3.87	72.1 ± 3.71	3.62 ± 0.25	13.4	30.93	16.07	48.27	28.3	10.9 ± 3.4	37 ± 6.18	39.9 ± 6.44	12.3 ± 2.5	54.3 ± 1.07	3.46 ± 0.45	–	–
O=C(CSc1nnc(-c2ccccc2Br)s1)Nc1cc(-c2c[nH]c3ccccc23)n[nH]1 [Compound 10c, N-(3-(1H-indol-3-yl)-1H-pyrazol-5-yl)-2-((5–(2-bromophenyl)-1,3,4-thiadiazol-2-yl)thio)acetamide]	–	–	–	11.9 ± 2.21	61.3 ± 17	33 ± 1.46	63.7 ± 6.51	–	–	–	–	–	31.9 ± 18	30.3 ± 12.6	27.1 ± 1.87	33.7 ± 3.54	24.3 ± 2.77	18.8 ± 2.92	quite weak antiproliferative activity	–
O=C(CSc1nnc(-c2ccccc2F)s1)Nc1cc(-c2c[nH]c3ccccc23)n[nH]1 [Compound 10g, N-(3-(1H-indol-3-yl)-1H-pyrazol-5-yl)-2-((5-(2-fluorophenyl)-1,3,4-thiadiazol-2-yl)thio)acetamide]	–	–	–	56.9 ± 9.69	11.8 ± 2.02	68.1 ± 4.49	10.1 ± 2.2	–	–	–	–	–	2.98 ± 0.28	96.4 ± 2.21	97.4 ± 0.838	3.32 ± 0.09	55.2 ± 3.17	14.2 ± 1.61	quite weak antiproliferative activity	–
Nn1c(SCC(=O)Nc2cc(-c3c[nH]c4ccccc34)n[nH]2)nnc1-c1ccccn1 [Compound 11i, N-(3-(1H-indol-3-yl)-1H-pyrazol-5-yl)-2-((4-amino-5-(pyridine-2-yl)-4H-1,2,4-triazol-3-yl)thio)acetamide]	–	–	–	95.3 ± 3.04	2.5 ± 1.44	67.1 ± 2.18	1.45 ± 0.22	–	–	–	–	–	2.77 ± 0.91	83.6 ± 5.66	99.5 ± 0.155	1.26 ± 0.24	94.8 ± 1.91	2.97 ± 0.83	–	208 to 210
Nn1c(SCC(=O)Nc2cc(-c3c[nH]c4ccccc34)n[nH]2)nnc1-c1ccccc1Cl [Compound 11j, N-(3-(1H-indol-3-yl)-1H-pyrazol-5-yl)-2-((4-amino-5–(2-chlorophenyl)-4H-1,2,4-triazol-3-yl)thio)acetamide]	–	–	–	14.4 ± 0.686	50.6 ± 4.69	10.9 ± 7.59	63 ± 0.87	–	–	–	–	–	34.4 ± 2.57	17.8 ± 2.85	14.3 ± 0.525	42.4 ± 3.6	13.7 ± 1.49	56.8 ± 5.27	–	136 to 138
Nn1c(SCC(=O)Nc2cc(-c3c[nH]c4ccccc34)n[nH]2)nnc1-c1ccccc1 [Compound 11k, N-(3-(1H-indol-3-yl)-1H-pyrazol-5-yl)-2-((4-amino-5-phenyl-4H-1,2,4-triazol-3-yl)thio)acetamide]	–	–	–	11.1 ± 0.757	73.1 ± 8.07	0.497 ± 5.03	23.6 ± 4.14	–	–	–	–	–	25.4 ± 2.77	23.1 ± 3.99	19.2 ± 3.55	39.7 ± 7.96	23.2 ± 0.539	23.9 ± 3.08	–	> 300
Nc1ccc(-c2nnc(SCC(=O)Nc3cc(-c4c[nH]c5ccccc45)n[nH]3)n2N)cc1 [Compound 11l, N-(3-(1H-indol-3-yl)-1H-pyrazol-5-yl)-2-((4-amino-5–(4-aminophenyl)-4H-1,2,4-triazol-3-yl)thio)acetamide]	–	–	–	93.5 ± 1.56	1.37 ± 0.57	79.6 ± 2.23	1.38 ± 1.17	–	–	–	–	–	2.88 ± 0.1	71.9 ± 4.55	99 ± 0.2	0.363 ± 0.1	96.7 ± 0.847	1.73 ± 0.3	–	213 to 215
Nn1c(SCC(=O)Nc2cc(-c3c[nH]c4ccccc34)n[nH]2)nnc1-c1ccc(Br)cc1 [Compound 11m, N-(3-(1H-indol-3-yl)-1H-pyrazol-5-yl)-2-((4-amino-5–(4-bromophenyl)-4H-1,2,4-triazol-3-yl)thio)acetamide]	–	–	–	60.9 ± 7.02	10.7 ± 5.21	54.2 ± 5.97	5.81 ± 0.88	–	–	–	–	–	21.3 ± 2.75	32.8 ± 6.5	98.5 ± 0.434	2.57 ± 0.43	71.7 ± 5.61	5.81 ± 0.69	–	270 to 272
Nn1c(SCC(=O)Nc2cc(-c3c[nH]c4ccccc34)n[nH]2)nnc1-c1c[nH]c2ccccc12 [Compound 11n, N-(3-(1H-indol-3-yl)-1H-pyrazol-5-yl)-2-((4-amino-5-(1H-indol-3-yl)-4H-1,2,4-triazol-3-yl)thio)acetamide]	–	–	–	80.5 ± 3.62	2.76 ± 1.74	44.7 ± 4.73	5.02 ± 1.29	–	–	–	–	–	10.4 ± 0.46	56.6 ± 12.9	97.1 ± 0.377	4.38 ± 0.45	31 ± 0.996	31.3 ± 3.29	–	230 to 232
Nn1c(SCC(=O)Nc2cc(-c3c[nH]c4ccccc34)n[nH]2)nnc1-c1ccc(F)cc1 [Compound 11p, N-(3-(1H-indol-3-yl)-1H-pyrazol-5-yl)-2-((4-amino-5–(4-fluorophenyl)-4H-1,2,4-triazol-3-yl)thio)acetamide]	–	–	–	22.8 ± 2.22	19.3 ± 6.15	5.33 ± 14.9	28.9 ± 0.52	–	–	–	–	–	33.3 ± 5.94	17.1 ± 1.22	11.7 ± 0.639	33.2 ± 4.95	23.9 ± 3.03	93.9 ± 7.47	–	209 to 212
Nn1c(SCC(=O)Nc2cc(-c3c[nH]c4ccccc34)n[nH]2)nnc1-c1ccccc1O [Compound 11q, N-(3-(1H-indol-3-yl)-1H-pyrazol-5-yl)-2-((4-amino-5–(2-hydroxyphenyl)-4H-1,2,4-triazol-3-yl)thio)acetamide]	–	–	–	84.7 ± 11.4	8.23 ± 7.58	99.3 ± 0.02	2.66 ± 1.29	–	–	–	–	–	2.89 ± 0.15	86.3 ± 0.332	99.2 ± 1.2	2.34 ± 0.34	89.4 ± 2.21	4.14 ± 1.71	–	263 to 266
Nn1c(SCC(=O)Nc2cc(-c3c[nH]c4ccccc34)n[nH]2)nnc1-c1ccc[nH]1 [Compound 11r, N-(3-(1H-indol-3–yl)-1H-pyrazol-5-yl)-2-((4-amino-5-(1H-pyrrol-2-yl)-4H-1,2,4-triazol-3-yl)thio)acetamide]	–	–	–	96.5 ± 1.22	1.75 ± 0.07	72.3 ± 5.76	1.53 ± 0.93	–	–	–	–	–	2.73 ± 1.05	79.4 ± 9.21	95 ± 2.52	1.84 ± 0.66	94.2 ± 1.81	2.72 ± 0.26	–	241 to 243
